From ChEMBL document CHEMBL1201862, “PubChem BioAssay data set” (2004) come the findings set out here.

Molecules are shown by their SMILES. Activity calls are given as the source filed them. A value given as a limit tells only on which side of the number the result lay.

A short description of test [1]: blockers of HIV-1 ZM109 envelope-driven cell-cell fusion – HeLa effector, CEM target cells, luciferase, cherry-pick, dose response (AID 652058).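 Note: luciferase signal from HIV-1 Env mediated cell-cell fusion of effector and target cells.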 Format: functional, cell-based.
Test [2] in a line: HIV-1 AD8 envelope cell-cell fusion blockers – cherry-pick, dose response (AID 652062).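 Note: luciferase signal from cell-cell fusion driven by HIV-1 clade B AD8 Env; potency is for inhibitors of fusion seen as a drop in luminescence.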 Format: functional, cell-based.
Test [3] in a line: blockers of HIV-1 envelope-mediated cell-cell fusion – cherry-pick, dose response (AID 652057). Format: functional, cell-based.
The nature of test [4]: viability loss in CEM21 cells – cell-based, CellTiter-Glo luminescence, cherry-picked, cytotoxicity control for viral fusion inhibitor project, dose response (AID 652042).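 Note: potency for signal decrease meaning cytotoxicity.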 Format: functional.
A further test concerns the target T1, fMet-Leu-Phe receptor (Homo sapiens, UniProt P21462).
T1 sequence (P21462 whole entry): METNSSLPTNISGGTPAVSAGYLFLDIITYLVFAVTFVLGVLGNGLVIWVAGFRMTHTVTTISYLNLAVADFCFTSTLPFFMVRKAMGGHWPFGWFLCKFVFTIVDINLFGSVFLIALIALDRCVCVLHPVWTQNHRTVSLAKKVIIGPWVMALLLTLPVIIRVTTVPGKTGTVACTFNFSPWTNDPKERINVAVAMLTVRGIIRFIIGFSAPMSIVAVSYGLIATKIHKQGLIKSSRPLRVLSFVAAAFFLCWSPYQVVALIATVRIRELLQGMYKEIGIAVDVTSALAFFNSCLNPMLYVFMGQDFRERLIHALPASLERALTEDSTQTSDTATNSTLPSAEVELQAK
In words: formyl peptide receptor binders – dose response (AID 519). The test is classed as functional.

For test [5], the target named is T2, Aryl hydrocarbon receptor (Homo sapiens, UniProt P35869).
T2 sequence (P35869 whole entry): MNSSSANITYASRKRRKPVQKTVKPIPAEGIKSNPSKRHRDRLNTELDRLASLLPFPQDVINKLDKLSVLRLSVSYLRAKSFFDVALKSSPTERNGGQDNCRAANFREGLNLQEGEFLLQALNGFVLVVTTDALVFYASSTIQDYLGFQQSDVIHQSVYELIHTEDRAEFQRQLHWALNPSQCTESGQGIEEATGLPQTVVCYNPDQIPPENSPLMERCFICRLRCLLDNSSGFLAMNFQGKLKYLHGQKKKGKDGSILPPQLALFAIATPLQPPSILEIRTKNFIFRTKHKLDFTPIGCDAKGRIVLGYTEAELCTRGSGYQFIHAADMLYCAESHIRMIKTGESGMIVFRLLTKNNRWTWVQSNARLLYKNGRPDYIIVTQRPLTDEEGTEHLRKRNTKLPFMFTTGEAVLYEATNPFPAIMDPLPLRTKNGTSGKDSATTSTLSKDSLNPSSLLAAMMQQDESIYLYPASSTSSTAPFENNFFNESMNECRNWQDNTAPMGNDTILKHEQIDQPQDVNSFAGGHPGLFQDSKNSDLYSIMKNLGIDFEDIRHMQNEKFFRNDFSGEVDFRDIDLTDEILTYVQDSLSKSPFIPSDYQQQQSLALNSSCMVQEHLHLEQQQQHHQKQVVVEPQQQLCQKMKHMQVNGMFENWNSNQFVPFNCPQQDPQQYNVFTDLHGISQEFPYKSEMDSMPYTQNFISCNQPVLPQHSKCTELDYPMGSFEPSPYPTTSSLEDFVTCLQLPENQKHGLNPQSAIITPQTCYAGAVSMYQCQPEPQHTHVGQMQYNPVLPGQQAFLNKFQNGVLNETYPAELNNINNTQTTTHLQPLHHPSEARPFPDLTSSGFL
In words: Luminescence-based cell-based high throughput dose response assay for activators of the Aryl Hydrocarbon Receptor (AHR). [Related pubchem assays: 2796 (Primary screen (AHR activators in singlicate)), 2845 (Confirmation screen (AHR activators in triplicate)), 434939 (Counterscreen (PXR activators in triplicate)), 2804 (Summary (AHR activators))]. Format: ADME.

Test [6] can be described thus: viability inhibitors of stage V gametocytes – luminescence, dose response (AID 1117278).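 Note: gametocytes exposed to compound for 24 hours.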 The test is classed as functional, cell-based.
Test [7] can be described thus: viability loss in human Jurkat cells – cell-based, luminescence, cytotoxicity control for P. falciparum gametocyte viability project, dose response (AID 1117277).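 Note: potency reflects loss of cellular ATP meaning fewer viable cells.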 The test is classed as functional.
Test [8] has as its target Mitogen-activated protein kinase 10 (Homo sapiens, UniProt P53779). In words: Dose response biochemical screening assay for inhibitors of c-Jun N-Terminal Kinase 3 (JNK3). [Related pubchem assays: 746 ].
In a further test the target is Major prion protein (Homo sapiens, UniProt P04156). Format: functional, cell-based.
Test [9] is described as follows: cells.
Test [10] in a line: viability of HCT116 lacking mutant beta-catenin – cell-based, human colon tumor, dose response (AID 1045).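 Note: HCT116 colon tumor cells with beta catenin knocked out; cells exposed to compound for 60 hours.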 Format: functional.
The next test deals with HT-1080. In words: HT1080 cell viability loss – fluorescence readout (AID 620). Format: functional, cell-based. As to conditions: Homo sapiens.
Test [11] in a line: cells. The source holds these as a separate data set.
The target of test [12] is T3, Oxysterols receptor LXR-beta (Homo sapiens, UniProt P55055).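 Note: Cell-based luminescence dose-response assay of agonist activity at LXR, run as a confirmatory counterscreen to a daf-12 agonist screen; HEK293 cells with Gal4-LXR fusion and GAL4-driven luciferase reporter; agonist potency from rising luciferase signal of a Gal4-LXR reporter.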
T3 sequence (P55055 whole entry): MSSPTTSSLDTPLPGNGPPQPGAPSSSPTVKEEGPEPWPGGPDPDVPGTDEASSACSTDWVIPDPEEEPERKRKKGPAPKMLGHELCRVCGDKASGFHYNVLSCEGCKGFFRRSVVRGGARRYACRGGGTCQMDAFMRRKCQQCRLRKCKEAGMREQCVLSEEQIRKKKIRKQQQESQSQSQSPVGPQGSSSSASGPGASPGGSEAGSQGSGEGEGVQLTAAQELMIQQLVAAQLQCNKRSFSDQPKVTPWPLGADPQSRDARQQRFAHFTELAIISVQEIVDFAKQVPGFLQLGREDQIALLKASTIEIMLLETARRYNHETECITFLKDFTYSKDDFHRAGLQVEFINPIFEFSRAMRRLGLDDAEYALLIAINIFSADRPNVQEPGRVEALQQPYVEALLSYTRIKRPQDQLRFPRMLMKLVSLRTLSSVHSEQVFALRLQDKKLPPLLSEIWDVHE
Format: functional, cell-based.

The target in test [13] is T4, Luciferin 4-monooxygenase (Photinus pyralis, UniProt P08659). In words: Counter Screen for Luciferase-based Assay Positives. [Related pubchem assays: 620, 618, 411 ].
A short description of test [14]: viability of PTEN-deleted HCT116 cells – cell-based, HCT116 PTEN knockout, dose response (AID 1047).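 Note: HCT116 colon tumor cells with PTEN knocked out; cells exposed to compound for 60 hours before readout; potency for loss of cell viability measured by luminescence.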 The test is classed as functional.
Test [15] can be described thus: Luminescence Cell-Based Dose Confirmation HTS to Identify Inhibitors of Platelet Dense Granule Release. [Related pubchem assays: 1663 (Primary HTS), 1678 (Summary of Project)]. The test is classed as functional.
Test [16] has as its target T4, Luciferin 4-monooxygenase. In words: inhibition of purified Photinus pyralis luciferase – biochemical, luminescence, dose response (AID 1891).
A further test addresses Cytochrome P450 3A4 (Homo sapiens, UniProt P08684).
The nature of test [17]: T. cruzi growth inhibition in host cells, dose response, cell-based, plate reader, dry powder, set 2 (AID 652275). Format: functional.
Test [18] in a line: off-target signal loss in HeLa-CEM21 co-culture – HeLa F-luc CTL cells, cherry-picked, counter-screen for HIV-1 Env fusion inhibitor project, dose response (AID 652040).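 Note: potency for signal decrease marking cytotoxic or nonspecific inhibition.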 The test is classed as functional, cell-based.
The target of a further test is T5, Protein skinhead-1 (Caenorhabditis elegans, UniProt P34707).
T5 sequence (P34707 whole entry): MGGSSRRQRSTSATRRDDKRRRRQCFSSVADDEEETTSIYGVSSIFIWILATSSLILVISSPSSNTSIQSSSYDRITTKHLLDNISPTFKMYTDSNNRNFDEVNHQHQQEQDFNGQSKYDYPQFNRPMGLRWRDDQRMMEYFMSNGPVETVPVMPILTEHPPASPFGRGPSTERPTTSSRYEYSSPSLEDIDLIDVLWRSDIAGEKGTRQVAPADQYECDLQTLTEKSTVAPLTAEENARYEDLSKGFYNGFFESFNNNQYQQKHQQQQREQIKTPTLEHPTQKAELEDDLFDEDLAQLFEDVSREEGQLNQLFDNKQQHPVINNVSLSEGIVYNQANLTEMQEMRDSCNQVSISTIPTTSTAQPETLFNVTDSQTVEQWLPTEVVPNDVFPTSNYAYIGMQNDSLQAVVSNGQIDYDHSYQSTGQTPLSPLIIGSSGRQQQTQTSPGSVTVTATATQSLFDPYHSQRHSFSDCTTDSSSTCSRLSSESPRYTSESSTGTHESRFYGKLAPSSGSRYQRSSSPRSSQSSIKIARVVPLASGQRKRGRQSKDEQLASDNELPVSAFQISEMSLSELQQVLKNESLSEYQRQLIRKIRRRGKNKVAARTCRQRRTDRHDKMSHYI
Format: functional.

For `O=C(Nc1ccc(Cl)c(Cl)c1)N[C@H]1CC[C@H](CCn2cc(C3CCCCC3)nn2)O[C@@H]1CO`, the AC50 was 16.8 µM (active) in [1], 43.9 µM (active) in test [2], 18.9 µM (active) in test [3] and 61 µM (active) in test [4].
`COc1ccc(-c2cn3cccnc3n2)cc1NC(=O)C1CC1`: the Ki on fMet-Leu-Phe receptor is > 66.7 µM (inactive).
Take `CC(=O)Nc1cccc(OCC(=O)Nc2ccc(F)cc2)c1`: the EC50 in test [5] is on record as 10.6 µM (not active).
Regarding `CCOc1c(Cl)cc(C(=O)Nc2cccc(C(=O)O)c2)cc1Cl`, the IC50 was > 109 µM (inactive) in [6] and > 83.2 µM (inactive) in [7].
`Cc1nc(N)nc(Nc2ccc(Cl)cc2)c1Br`: the EC50 in test [5] is 0.351 µM (active).
For the molecule `O=C(O)CCSc1ccc2ccccc2n1`, the figures for the IC50 (in [8]; at Major prion protein; in the test “cells [9]”) were 34.8 µM (not active), 3.19 µM (active) and > 138 µM (inactive), respectively.
Regarding `Cc1ccc(-c2nc(N/N=C/c3ccncc3)c3ccccc3n2)cc1`, the EC50 in test [10] was 43.7 µM (active); in the test on HT-1080, > 50 µM (not active); in the test “cells [11]” it was > 67.5 µM (inactive); in [12], > 67.5 µM (inactive); in [13], 7.97 µM (active); in [14], 59.3 µM (active). In addition, the figures for the EC50 in [15] and in test [16] were 0.209 µM (active) and 0.158 µM (active), respectively.
`O=C(O)CCN1C(=O)c2ccc(NC(=O)c3ccco3)cc2C1=O`: the figures for the IC50 in test [6] and in test [7] were > 109 µM (inactive) and > 83.2 µM (inactive), respectively.
The like results for `CC(=O)Nc1ccc(N(C(=O)CNC(=O)c2ccco2)C(C(=O)NCC2CCCO2)c2ccccc2)cc1` (stereo not drawn) were, in that order, > 109 µM (inactive) and > 83.3 µM (inactive).
For `O=C(NCc1nc2ccccc2[nH]1)c1cccs1`, the concentration for half-maximal inhibition (IC50) in test [8] is on record as 43 µM (not active).
For the molecule `COc1cccc2c(O)c(C(=O)NCc3cccs3)cnc12`, in test [8], the IC50 is on record as 18.9 µM (not active). Further, the concentration at half-maximal activity (AC50) on Cytochrome P450 3A4 was 1.78 µM (inconclusive).
Consider `CC(C)N1CC[C@@H](CNCc2ccc(Oc3ccccc3)cc2)Oc2c(NC(=O)c3ccncc3)cccc2C1=O`, for which the concentration at half-maximal activity (AC50) in [17] was 0.083 µM (active).
As for `COc1cccc(NC(=O)c2ccncc2)c1`, the IC50 in test [6] was > 109 µM (inactive); in [7] it was > 83.4 µM (inactive).
In the case of `CC(C)N1C[C@H](CNCc2ccc(Oc3ccccc3)cc2)Oc2c(NC(=O)c3ccncc3)cccc2C1=O`, the AC50 in test [17] is 0.0164 µM (active).
On to `CCc1ccc(OCC(=O)NCC(c2ccc(Cl)cc2)N2CCCCC2)cc1` (stereo not drawn), for which the half-maximal activity concentration (AC50) in test [1] is 4.51 µM (active); in test [2], 8.41 µM (active); in test [18], 9.03 µM (active); in test [3] it was 3.95 µM (active); in test [4], 28.4 µM (active).
Consider `Cc1cc(C)cc(COn2ccnc2)c1`, for which the IC50 was > 109 µM (inactive) in test [6] and > 83.4 µM (inactive) in test [7].
For `Cc1ccc2c(c1)Cc1nc3ccccc3nc1-2`, the EC50 (in “cells [11]”; in [12]) was > 67.6 µM (inactive) throughout.
On to `CC(=O)SCC(=O)/N=c1\sc2cc(F)ccc2n1C`, for which the Ki on fMet-Leu-Phe receptor was 22.8 µM (inactive).
The same measure, in the same setting: in the case of `Cc1ccc(NC(=O)C2C(=O)N(CCO)C3(C)CC2c2ccccc2O3)cc1` (stereo not drawn) it was > 66.7 µM (inactive); in that of `CCCOc1ccc(C2C(C(=O)c3ccc(C)o3)=C(O)C(=O)N2Cc2cccnc2)cc1` (stereo not drawn), 42.7 µM (inactive).
As for `CC(=O)Nc1cccc2c1C(=O)N(c1ccc(C)cc1)C2=O`, the EC50 in test [5] was 1.09 µM (active).
As to `COc1ccc(-c2nnc(-c3ccc(Br)o3)o2)cc1OC`, the 50% inhibitory concentration (IC50) in test [8] is > 93.1 µM (not active); at Major prion protein it was 4.59 µM (active); in “cells [9]”, > 138 µM (inactive); on Protein skinhead-1, > 100 µM (inactive).
With `CCc1cc(/C(Cc2ccc3ccccc3n2)=N\O)c(O)cc1O`, the EC50 in test [5] was > 3.39 µM (active).
Consider `CC(C)c1ccc(-n2nc3ccc(N)cc3n2)cc1`, for which the EC50 (in “cells [11]”; in test [12]) was > 67.6 µM (inactive) throughout.
For the molecule `COc1cc(C2NC(=O)NC(C)=C2C(=O)OC2CCCC(C)C2)ccc1O` (stereo not drawn), in test [8], the IC50 is listed as 39.4 µM (not active).
`NC(=O)c1c(Br)n(C2OC(CO)C(O)C2O)c2ncnc(N)c12` (stereo not drawn): the AC50 in test [1] is 5 µM (active); in test [2] it was 7.68 µM (active); in [18], 28 µM (active); in [3] it was 3.32 µM (active); in [4], 3.1 µM (active).
Regarding `Cc1cccc(-c2ccc([C@H]3[C@H](CO)N4CCCCN(C(=O)c5cccnc5)C[C@@H]34)cc2)c1`, the concentration at half-maximal activity (AC50) in [17] is 2.3 µM (active).
